This is an account of results in ChEMBL document CHEMBL1201862, “PubChem BioAssay data set” (2004).

Test systems include IGROV-1; SF-295; SR; TK-10; SW-620; OVCAR-3; RPMI-8226; UACC-257; HT-29; OVCAR-4; MDA-MB-231; PC-3; A549; DU-145; HOP-92; EKVX; CAKI-1; T47D; CCRF-CEM.
Common to all, as to test: NCI-60 cell line screen, 48 h

SMILES strings stand for the structures.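 Following 48 hours of exposure in 96-well plates, responses at five concentrations were used to interpolate endpoints linearly. GI50 = concentration required for 50% inhibition of growth.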 Activity calls are given as the source filed them. Rule as the data show it: active = GI50 up to about 1.1 µM and inactive = higher.

Take `c1ccc(N/N=N/c2ccc(-c3nc4ccccc4[nH]3)cc2)nc1`: the GI50 is 13.2 µM (inactive) in the test with IGROV-1; 19.2 µM (inactive) in the test with SF-295; 2.12 µM (inactive) in the test with SR; 19.6 µM (inactive) in the test on TK-10; 17.8 µM (inactive) in the test on SW-620; 15 µM (inactive) in the test on OVCAR-3. The GI50 is 2.05 µM (inactive) with RPMI-8226; 23.2 µM (inactive) in the test on UACC-257; 21 µM (inactive) with HT-29; 17.8 µM (inactive) with OVCAR-4; 12.6 µM (inactive) with MDA-MB-231; 18.1 µM (inactive) with PC-3. The GI50 with A549 is 19.2 µM (inactive); in the test on DU-145 it was 13.2 µM (inactive); in the test with HOP-92 it was 17.3 µM (inactive); with EKVX, 17.3 µM (inactive); in the test on CAKI-1, 27.9 µM (inactive); with T47D, 12.7 µM (inactive). In addition, the GI50 in the test with CCRF-CEM was 2.64 µM (inactive).
As for `CC[C@]1(Cc2ccc(OC)c(OC)c2)C=[N+]([O-])O[C@H](OC2CCCCC2c2ccccc2)[C@@H]1OC(C)=O` (stereo not given in full), the GI50 is 39.4 µM (inactive) in the test on IGROV-1; 37.9 µM (inactive) with SF-295; 22.8 µM (inactive) in the test with SR; > 100 µM (inactive) in the test with TK-10; 40.2 µM (inactive) with SW-620; 33.4 µM (inactive) with OVCAR-3. Also, the GI50 in the test on RPMI-8226 was 21.1 µM (inactive); with UACC-257, 67.3 µM (inactive); in the test with HT-29 it was 45.1 µM (inactive); in the test with OVCAR-4, 33 µM (inactive); with MDA-MB-231, 75.3 µM (inactive); in the test with PC-3, 31.8 µM (inactive). The GI50 with A549 was 41.5 µM (inactive); with DU-145, 49 µM (inactive); with HOP-92 it was 57.7 µM (inactive); in the test with EKVX, 46.7 µM (inactive); in the test on CAKI-1, 21.2 µM (inactive); with T47D, 24.7 µM (inactive). Further, in the test with CCRF-CEM, the GI50 is 23.2 µM (inactive).
Take `O=C1c2ccccc2CC12Cc1ccccc1C2`: the GI50 is 87.5 µM (inactive) in the test with IGROV-1; > 100 µM (inactive) with SF-295; 6.12 µM (inactive) with SR; 21.9 µM (inactive) in the test with TK-10; > 100 µM (inactive) in the test with SW-620; 44 µM (inactive) in the test with OVCAR-3. Besides, the GI50 with RPMI-8226 is 31.7 µM (inactive); in the test with UACC-257 it was 18.9 µM (inactive); in the test on HT-29, 23.4 µM (inactive); with OVCAR-4, 16.7 µM (inactive); in the test on MDA-MB-231 it was 66.7 µM (inactive); in the test on PC-3, 42 µM (inactive). Moreover, the GI50 is 37.3 µM (inactive) with A549; 86.3 µM (inactive) with DU-145; 31.4 µM (inactive) with HOP-92; 20.7 µM (inactive) in the test with EKVX; 48.3 µM (inactive) in the test on CAKI-1; 36.2 µM (inactive) with T47D. Also, the GI50 in the test with CCRF-CEM is 48.3 µM (inactive).
Take `CN/N=C(\C)C(CN(C)C)C(c1ccccc1)c1c(O)c2ccccc2oc1=O` (stereo not given): the GI50 was > 100 µM (inactive) in the test with IGROV-1; > 100 µM (inactive) in the test with SF-295; 67.9 µM (inactive) in the test with SR; > 100 µM (inactive) in the test on TK-10; > 100 µM (inactive) with SW-620; 49.5 µM (inactive) in the test on OVCAR-3. Besides, the GI50 is 42 µM (inactive) in the test on RPMI-8226; > 100 µM (inactive) in the test with UACC-257; > 100 µM (inactive) in the test with HT-29; 99.1 µM (inactive) in the test on OVCAR-4; > 100 µM (inactive) in the test on MDA-MB-231; > 100 µM (inactive) in the test with PC-3. The GI50 is > 100 µM (inactive) in the test on A549; > 100 µM (inactive) with DU-145; 0.0574 µM (active) with HOP-92; > 100 µM (inactive) with EKVX; > 100 µM (inactive) in the test on CAKI-1; 18.7 µM (inactive) with T47D. Besides, in the test on CCRF-CEM, the GI50 is 73.6 µM (inactive).
Consider `N#CC(NCCc1ccccc1)c1ccccc1` (stereo not given), for which the GI50 in the test with IGROV-1, with SF-295, in the test on SR, with TK-10, with SW-620 and with OVCAR-3 was > 100 µM (inactive) each time. Also, the GI50 in the test on RPMI-8226, with UACC-257, in the test with HT-29, in the test with OVCAR-4, with MDA-MB-231 and in the test on PC-3 was > 100 µM (inactive) each time. Further, the GI50 in the test with A549, in the test on DU-145, in the test on HOP-92, with EKVX, with CAKI-1 and with T47D was > 100 µM (inactive) in each case. Further, in the test with CCRF-CEM, the GI50 is > 100 µM (inactive).
For `C=C1C(=O)OC2/C=C(/C)C(OC(C)=O)CC(O)/C(C)=C\C(OC(=O)/C(C)=C\C)C12` (stereo not given), the GI50 was > 100 µM (inactive) in the test on IGROV-1; > 100 µM (inactive) in the test with SF-295; 26.7 µM (inactive) in the test with SR; > 100 µM (inactive) in the test on TK-10; 25.8 µM (inactive) in the test on SW-620; 46.6 µM (inactive) with OVCAR-3. In addition, the GI50 in the test with RPMI-8226 is 38.7 µM (inactive); with UACC-257, > 100 µM (inactive); in the test with HT-29 it was 66.1 µM (inactive); in the test on OVCAR-4 it was > 100 µM (inactive); in the test with MDA-MB-231, > 100 µM (inactive); with PC-3, > 100 µM (inactive). In addition, the GI50 with A549 was > 100 µM (inactive); in the test with DU-145, 53.8 µM (inactive); in the test on HOP-92, 43.6 µM (inactive); in the test with EKVX, 78 µM (inactive); with CAKI-1 it was 30.5 µM (inactive); with T47D it was 52.6 µM (inactive). The GI50 in the test with CCRF-CEM is 28.6 µM (inactive).
With `COc1cc(C(=O)O[C@@H]2[C@@H](OC(=O)c3cc(OC)c(OC)c(OC)c3)[C@@H](OC)O[C@@H]3CO[C@@H](c4ccccc4)O[C@@H]23)cc(OC)c1OC`, the GI50 in the test on IGROV-1, in the test with SF-295, in the test with SR, in the test with TK-10, with SW-620 and in the test with OVCAR-3 was > 100 µM (inactive) in each case. The GI50 in the test with RPMI-8226, in the test on UACC-257, in the test with HT-29, with OVCAR-4, in the test with MDA-MB-231 and with PC-3 was > 100 µM (inactive) each time. Further, the GI50 in the test on A549, in the test on DU-145, with HOP-92, in the test with EKVX, in the test with CAKI-1 and with T47D was > 100 µM (inactive) in each case. In the test on CCRF-CEM, the GI50 is > 100 µM (inactive).
For the compound `CCC(C)NC(=S)N/N=C(\C)c1ccccn1` (stereo not given), the GI50 in the test with IGROV-1 is < 0.01 µM (active); in the test with SF-295, 0.215 µM (active); with SR, < 0.01 µM (active); in the test on TK-10 it was 2.87 µM (inactive); with SW-620, < 0.0132 µM (active); with OVCAR-3, < 0.01 µM (active). For the same compound, the GI50 in the test with RPMI-8226 is < 0.01 µM (active); in the test with UACC-257, < 0.01 µM (active); with HT-29, < 0.01 µM (active); in the test with OVCAR-4, 1.31 µM (inactive); with MDA-MB-231, 0.0543 µM (active); with PC-3, < 0.01 µM (active). The GI50 in the test on A549 is 0.0946 µM (active); in the test on DU-145, 1.28 µM (inactive); with HOP-92 it was 0.14 µM (active); with EKVX, < 0.01 µM (active); with CAKI-1, < 0.01 µM (active); with T47D, < 0.01 µM (active). In the test with CCRF-CEM, the GI50 is < 0.01 µM (active).
Regarding `COc1cc(/C=C/C(=O)c2c([O-])on[n+]2-c2ccccc2)ccc1O`, the GI50 is 2.86 µM (inactive) with IGROV-1; 7.89 µM (inactive) in the test on SF-295; 1.53 µM (inactive) in the test with SR; 3.29 µM (inactive) in the test with TK-10; 2.18 µM (inactive) in the test on SW-620; 2.29 µM (inactive) with OVCAR-3. The GI50 with RPMI-8226 was 1.77 µM (inactive); in the test on UACC-257 it was 3.87 µM (inactive); in the test with HT-29 it was 2.37 µM (inactive); with OVCAR-4, 1.9 µM (inactive); in the test on MDA-MB-231, 2.98 µM (inactive); with PC-3 it was 6.58 µM (inactive). In addition, the GI50 in the test with A549 is 4.09 µM (inactive); in the test with DU-145, 2.34 µM (inactive); in the test on HOP-92, 2.4 µM (inactive); with EKVX, 3.72 µM (inactive); with CAKI-1 it was 3 µM (inactive); with T47D, 2.77 µM (inactive). The GI50 with CCRF-CEM was 1.37 µM (inactive).
`COc1cc2c(/C=C3/C(=O)N(c4ccccc4)c4ccccc43)c(Cl)[nH]c2cc1C`: the GI50 in the test with IGROV-1 was 2.7 µM (inactive); in the test with SF-295, 2.85 µM (inactive); with SR, 3.03 µM (inactive); with TK-10, 3.19 µM (inactive); in the test with SW-620 it was 2.84 µM (inactive); in the test on OVCAR-3, 1.99 µM (inactive). Also, the GI50 in the test with RPMI-8226 was 1.34 µM (inactive); in the test with UACC-257, 3.82 µM (inactive); with HT-29, 3.09 µM (inactive); in the test on OVCAR-4, 2.59 µM (inactive); in the test with MDA-MB-231, 3.21 µM (inactive); in the test with PC-3, 2.94 µM (inactive). Besides, the GI50 with A549 was 3.41 µM (inactive); in the test on DU-145, 2.89 µM (inactive); with HOP-92, 4.44 µM (inactive); with EKVX, 3.6 µM (inactive); in the test on CAKI-1, 3.89 µM (inactive); with T47D it was 2.07 µM (inactive). Besides, the GI50 with CCRF-CEM is 1.71 µM (inactive).
